Experimental data: PubChem BioAssay AID1963839 (Molecular Pharmacology Branch, DTP, NCI, 2024)

Test system: 817829-284-R-J1-PDC complex spheroid viability
Assay: Anticancer human tumor 817829-284-R-J1-PDC patient-derived colon adenocarcinoma cell line growth inhibition [POLQ]
Settings: for IC50: curve of first compound; for viability, T/C: stronger effect = lower value
Outline: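 Complex spheroid viability model combining PDC tumour cells with endothelial (HUVEC) and MSC stromal cells. Novobiocin, ART-558 or RP6685 were tested singly and in combination with standard and investigational anticancer drugs. Each was titrated in half-log steps from near clinical Cmax, or from 10 microM where Cmax was unknown.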

[1] = second compound 0.0316 µM, first compound 0.0316 µM
[2] = second compound 0.0316 µM, first compound 0.1 µM
[3] = second compound 0.0316 µM, first compound 0.316 µM
[4] = second compound 0.0316 µM, first compound 1 µM
[5] = second compound 0.0316 µM, first compound 3.16 µM
[6] = second compound 0.0316 µM, first compound 10 µM
[7] = second compound 0.1 µM, first compound 0.0316 µM
[8] = second compound 0.1 µM, first compound 0.1 µM
[9] = second compound 0.1 µM, first compound 0.316 µM
[10] = second compound 0.1 µM, first compound 1 µM
[11] = second compound 0.1 µM, first compound 3.16 µM
[12] = second compound 0.1 µM, first compound 10 µM
[13] = second compound 0.316 µM, first compound 0.0316 µM
[14] = second compound 0.316 µM, first compound 0.1 µM
[15] = second compound 0.316 µM, first compound 0.316 µM
[16] = second compound 0.316 µM, first compound 1 µM
[17] = second compound 0.316 µM, first compound 3.16 µM
[18] = second compound 0.316 µM, first compound 10 µM
[19] = second compound 1 µM, first compound 0.0316 µM
[20] = second compound 1 µM, first compound 0.1 µM
[21] = second compound 1 µM, first compound 0.316 µM
[22] = second compound 1 µM, first compound 1 µM
[23] = second compound 1 µM, first compound 3.16 µM
[24] = second compound 1 µM, first compound 10 µM
[25] = second compound 3.16 µM, first compound 0.0316 µM
[26] = second compound 3.16 µM, first compound 0.1 µM
[27] = second compound 3.16 µM, first compound 0.316 µM
[28] = second compound 3.16 µM, first compound 1 µM
[29] = second compound 3.16 µM, first compound 3.16 µM
[30] = second compound 3.16 µM, first compound 10 µM
[31] = second compound 10 µM, first compound 0.0316 µM
[32] = second compound 10 µM, first compound 0.1 µM
[33] = second compound 10 µM, first compound 0.316 µM
[34] = second compound 10 µM, first compound 1 µM
[35] = second compound 10 µM, first compound 3.16 µM
[36] = second compound 10 µM, first compound 10 µM
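Also: spheroids exposed to compounds for 7 days.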
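For viability, T/C in this document: 100% = DMSO vehicle-treated spheroids.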

## COc1cccc2c1C(=O)c1c(O)c3c(c(O)c1C2=O)CC(O)(C(=O)CO)CC3OC1CC(N)C(O)C(C)O1 (stereo unspecified) + Nc1ccc(C#CCN(C(=O)Cc2ncc(C(F)(F)F)cc2C(F)(F)F)c2ccc(F)cc2)nn1
Second compound 0.0316 µM
  IC50: < 31.6 nM
Second compound 0.1 µM
  IC50: < 31.6 nM
Second compound 0.316 µM
  IC50: < 31.6 nM
Second compound 1 µM
  IC50: < 31.6 nM
Second compound 3.16 µM
  IC50: < 31.6 nM
Second compound 10 µM
  IC50: < 31.6 nM
[1]
  viability, T/C: 21.8%
[2]
  viability, T/C: 21.2%
[3]
  viability, T/C: 5.37%
[4]
  viability, T/C: 0.34%
[5]
  viability, T/C: 0.13%
[6]
  viability, T/C: 0.41%
[7]
  viability, T/C: 18.1%
[8]
  viability, T/C: 21.5%
[9]
  viability, T/C: 6.2%
[10]
  viability, T/C: 0.54%
[11]
  viability, T/C: 0.2%
[12]
  viability, T/C: 0.48%
[13]
  viability, T/C: 21.1%
[14]
  viability, T/C: 17.4%
[15]
  viability, T/C: 6.38%
[16]
  viability, T/C: 0.38%
[17]
  viability, T/C: 0.13%
[18]
  viability, T/C: 0.65%
[19]
  viability, T/C: 21.6%
[20]
  viability, T/C: 22.7%
[21]
  viability, T/C: 5.1%
[22]
  viability, T/C: 0.6%
[23]
  viability, T/C: 0.16%
[24]
  viability, T/C: 0.62%
[25]
  viability, T/C: 17.3%
[26]
  viability, T/C: 15.6%
[27]
  viability, T/C: 5.54%
[28]
  viability, T/C: 0.25%
[29]
  viability, T/C: 0.19%
[30]
  viability, T/C: 0.51%
[31]
  viability, T/C: 18.4%
[32]
  viability, T/C: 21.1%
[33]
  viability, T/C: 4.32%
[34]
  viability, T/C: 0.29%
[35]
  viability, T/C: 0.26%
[36]
  viability, T/C: 0.52%

## C#Cc1c(F)ccc2cc(O)cc(-c3ncc4c(N5CC6CCC(C5)N6)nc(OCC56CCCN5CC(F)C6)nc4c3F)c12 (stereo unspecified) + COC1C(OC(N)=O)C(O)C(Oc2ccc3c(O)c(NC(=O)c4ccc(O)c(CC=C(C)C)c4)c(=O)oc3c2C)OC1(C)C
Second compound 0.0316 µM
  IC50: > 10000 nM
Second compound 0.1 µM
  IC50: > 10000 nM
Second compound 0.316 µM
  IC50: > 10000 nM
Second compound 1 µM
  IC50: 7860 nM
Second compound 3.16 µM
  IC50: > 10000 nM
Second compound 10 µM
  IC50: 8110 nM
[1]
  viability, T/C: 88.1%
[2]
  viability, T/C: 92.5%
[3]
  viability, T/C: 135%
[4]
  viability, T/C: 119%
[5]
  viability, T/C: 102%
[6]
  viability, T/C: 93.4%
[7]
  viability, T/C: 95.6%
[8]
  viability, T/C: 107%
[9]
  viability, T/C: 102%
[10]
  viability, T/C: 114%
[11]
  viability, T/C: 89.2%
[12]
  viability, T/C: 106%
[13]
  viability, T/C: 88.1%
[14]
  viability, T/C: 105%
[15]
  viability, T/C: 87.5%
[16]
  viability, T/C: 116%
[17]
  viability, T/C: 127%
[18]
  viability, T/C: 66.5%
[19]
  viability, T/C: 110%
[20]
  viability, T/C: 140%
[21]
  viability, T/C: 109%
[22]
  viability, T/C: 126%
[23]
  viability, T/C: 101%
[24]
  viability, T/C: 36.5%
[25]
  viability, T/C: 117%
[26]
  viability, T/C: 121%
[27]
  viability, T/C: 99.1%
[28]
  viability, T/C: 113%
[29]
  viability, T/C: 113%
[30]
  viability, T/C: 56.7%
[31]
  viability, T/C: 87.3%
[32]
  viability, T/C: 113%
[33]
  viability, T/C: 144%
[34]
  viability, T/C: 101%
[35]
  viability, T/C: 132%
[36]
  viability, T/C: 35.4%

## Nc1ccn(C2OC(CO)C(O)C2(F)F)c(=O)n1 (stereo unspecified) + COC1C(OC(N)=O)C(O)C(Oc2ccc3c(O)c(NC(=O)c4ccc(O)c(CC=C(C)C)c4)c(=O)oc3c2C)OC1(C)C
Second compound 0.0316 µM
  IC50: < 31.6 nM
Second compound 0.1 µM
  IC50: < 31.6 nM
Second compound 0.316 µM
  IC50: < 31.6 nM
Second compound 1 µM
  IC50: < 31.6 nM
Second compound 3.16 µM
  IC50: < 31.6 nM
Second compound 10 µM
  IC50: < 31.6 nM
[1]
  viability, T/C: 5.87%
[2]
  viability, T/C: 4.61%
[3]
  viability, T/C: 5.48%
[4]
  viability, T/C: 4.5%
[5]
  viability, T/C: 3.65%
[6]
  viability, T/C: 3.38%
[7]
  viability, T/C: 5.96%
[8]
  viability, T/C: 4.96%
[9]
  viability, T/C: 5.53%
[10]
  viability, T/C: 4.76%
[11]
  viability, T/C: 3.8%
[12]
  viability, T/C: 3.28%
[13]
  viability, T/C: 5.1%
[14]
  viability, T/C: 4.62%
[15]
  viability, T/C: 5.85%
[16]
  viability, T/C: 5.46%
[17]
  viability, T/C: 3.59%
[18]
  viability, T/C: 2.73%
[19]
  viability, T/C: 4.99%
[20]
  viability, T/C: 4.37%
[21]
  viability, T/C: 5.56%
[22]
  viability, T/C: 4.58%
[23]
  viability, T/C: 4.04%
[24]
  viability, T/C: 3.14%
[25]
  viability, T/C: 4.75%
[26]
  viability, T/C: 4.78%
[27]
  viability, T/C: 5.45%
[28]
  viability, T/C: 4.57%
[29]
  viability, T/C: 3.73%
[30]
  viability, T/C: 3.65%
[31]
  viability, T/C: 6.16%
[32]
  viability, T/C: 4.98%
[33]
  viability, T/C: 5.43%
[34]
  viability, T/C: 5.17%
[35]
  viability, T/C: 4.49%
[36]
  viability, T/C: 3.17%
